According to PubChem BioAssay (NCI):
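Following 48 hours of exposure in 96-well plates, responses at five concentrations were used to interpolate endpoints linearly. GI50: concentration for 50% inhibition of growth. TGI: total growth inhibition.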

Tests used:
Experiment in all cases: growth of human tumour cells (NCI), 48 h
[1] = test system: MALME-3M melanoma
[2] = test system: OVCAR-4 ovarian
[3] = test system: ACHN renal
[4] = test system: SNB-19 CNS
[5] = test system: HOP-92 NSCLC
[6] = test system: CAKI-1 renal
[7] = test system: BT-549 breast
[8] = test system: SW-620 colon
[9] = test system: NCI-H460 lung
[10] = test system: HCT-116 colon

SMILES | GI50 [1] | TGI [1] | GI50 [2] | TGI [2] | GI50 [3] | GI50 [4] | TGI [4] | GI50 [5] | TGI [5] | GI50 [6] | TGI [6] | GI50 [7] | TGI [7] | GI50 [8] | TGI [8] | GI50 [9] | TGI [9] | GI50 [10] | TGI [10] | TGI [3]
N#CN1CC[C@H](C(=O)Nc2cc3cc(C(N)=O)ccc3cn2)C1 | 0.0239 µM | 0.152 µM | 0.041 µM | 1.6 µM | 0.333 µM | 0.144 µM | > 100 µM | 69.2 nM | 0.542 µM | 487 nM | > 100 µM | 35.7 nM | 0.23 µM | 96.9 nM | > 84.9 µM | 188 nM | > 44 µM | 104 nM | 15.3 µM | –
CC(=O)OC1CC[C@@]2(C)C(CC[C@]3(C)C2CC=C2[C@@H]4C(C)[C@H](C)CCC4(C)CCC23C)[C@@]1(C)C(=O)O (some centres undefined) | – | 49 µM | – | 66.7 µM | – | – | 53.1 µM | – | 49.9 µM | – | 35.1 µM | – | 49.8 µM | – | 55.5 µM | – | 71.6 µM | – | 30.8 µM | 36.8 µM
Cc1cc(Cl)ccc1Nc1nc(C(F)(F)F)ccc1C(=O)N/N=C/c1ccccc1Cl | 1.54 µM | 6.18 µM | 0.422 µM | > 100 µM | 1.53 µM | 1.72 µM | 14.5 µM | 2140 nM | > 24.6 µM | 2820 nM | 7.72 µM | 1120 nM | 5.75 µM | 667 nM | 6.02 µM | 850 nM | 4.84 µM | 439 nM | 3.18 µM | 6.86 µM
O=c1oc2ccc(-c3ccc(F)cc3F)cc2c(=O)n1-c1ccc(Cl)c(C(F)(F)F)c1 | 2.19 µM | 5.73 µM | 3.16 µM | > 100 µM | 3.12 µM | 3.65 µM | > 100 µM | 1580 nM | 5.39 µM | 1910 nM | 6.35 µM | 2060 nM | 5.17 µM | 3160 nM | 11.7 µM | 2960 nM | > 100 µM | 1750 nM | 3.49 µM | 9.8 µM
Cc1cn(-c2ccc(S(C)(=O)=O)cc2)c(-c2ccc(Cl)cc2)n1 | > 100 µM | > 100 µM | > 100 µM | > 100 µM | > 100 µM | > 100 µM | > 100 µM | > 100000 nM | > 100 µM | > 100000 nM | > 100 µM | > 100000 nM | > 100 µM | > 100000 nM | > 100 µM | > 100000 nM | > 100 µM | > 100000 nM | > 100 µM | > 100 µM
O=S(=O)(Nc1ccc(F)c(Cl)c1)c1ccc(-c2cnc(C3CC3)o2)cc1 | 0.589 µM | 16.1 µM | 1.2 µM | 11.7 µM | 0.533 µM | 0.389 µM | 13.7 µM | 367 nM | 3.94 µM | 179 nM | 11.7 µM | 577 nM | 9.01 µM | 159 nM | 13.9 µM | 377 nM | 4.29 µM | 334 nM | 10.4 µM | 12 µM
COc1cc(/C=C/c2cc(/C=C/c3ccc(O)c(OC)c3)n(C(=O)Nc3ccc(Cl)cc3)n2)ccc1O | 0.76 µM | 3.96 µM | 0.803 µM | 5.73 µM | 0.52 µM | 0.664 µM | 11.1 µM | 2140 nM | 7.04 µM | 401 nM | 36.6 µM | 885 nM | 3.51 µM | 490 nM | 2.73 µM | 327 nM | 1.85 µM | 354 nM | 2.54 µM | 11.4 µM
CNS(=O)(=O)OCC1OC(n2cnc3c(N)ncnc32)C(O)C1O (centres undefined) | > 100 µM | > 100 µM | > 100 µM | > 100 µM | > 100 µM | > 100 µM | > 100 µM | > 100000 nM | > 100 µM | > 100000 nM | > 100 µM | > 100000 nM | > 100 µM | > 100000 nM | > 100 µM | > 100000 nM | > 100 µM | > 100000 nM | > 100 µM | > 100 µM
COc1ccc(N(/C=C/C(=O)C(F)(F)F)CC(=O)c2ccc(Cl)cc2)cc1 | 16 µM | 37.6 µM | 18 µM | 49.1 µM | 14.5 µM | 18.8 µM | 47.1 µM | 15900 nM | 41.4 µM | 9880 nM | 29.6 µM | 20600 nM | 65.3 µM | 19200 nM | 41 µM | 13400 nM | 32.8 µM | 7620 nM | 26.6 µM | 27.6 µM
Cc1cc(Nc2cc(N3CCN(C)CC3)nc(Sc3ccc(NC(=O)C4CC4)cc3)n2)n[nH]1 | 4.85 µM | > 10 µM | > 10 µM | > 10 µM | > 10 µM | > 10 µM | > 10 µM | 989 nM | 5.77 µM | 4270 nM | > 10 µM | 5890 nM | > 10 µM | 1080 nM | > 10 µM | 537 nM | > 10 µM | 273 nM | > 10 µM | > 10 µM
Cc1cccc(NC(=O)/C=C/c2ccc([N+](=O)[O-])cc2)c1 | – | 66.9 µM | – | > 56.3 µM | – | – | > 47.9 µM | – | 50.7 µM | – | > 54.4 µM | – | > 51.8 µM | – | > 60.2 µM | – | > 64.5 µM | – | > 52.9 µM | 28.8 µM
O=C1c2ccccc2C(=O)c2sc(Nc3ccccc3Cl)nc21 | – | 28 µM | – | 22.8 µM | – | – | 28.1 µM | – | 27.9 µM | – | 18.4 µM | – | 29.5 µM | – | 8.97 µM | – | 29.6 µM | – | 22.9 µM | 14.9 µM
COc1cc(-n2ccnc2)cc(OC)c1OC | 35.1 µM | > 100 µM | > 100 µM | > 100 µM | 34.6 µM | > 100 µM | > 100 µM | 72600 nM | > 100 µM | 26700 nM | 55.8 µM | > 100000 nM | > 100 µM | > 100000 nM | > 100 µM | 41600 nM | > 100 µM | 31900 nM | > 100 µM | > 100 µM
Nc1nc(=O)n([C@@H]2CS[C@H](CO)O2)cc1F | > 100 µM | > 100 µM | > 100 µM | > 100 µM | > 100 µM | > 100 µM | > 100 µM | > 100000 nM | > 100 µM | > 100000 nM | > 100 µM | > 100000 nM | > 100 µM | > 100000 nM | > 100 µM | > 100000 nM | > 100 µM | > 100000 nM | > 100 µM | > 100 µM
COc1ccc(C2C=C(c3ccc(Cl)cc3)N=C3SC=C(C)N32)c(Br)c1 (centres undefined) | 8.31 µM | 22.8 µM | 3.89 µM | 34.6 µM | 3.64 µM | 5.25 µM | 21.7 µM | 3450 nM | 22 µM | 2980 nM | 12.4 µM | 3220 nM | 12.4 µM | 2850 nM | 10.3 µM | 2240 nM | 5.87 µM | 2580 nM | 11 µM | 17.4 µM
